# Assay results as given in US3954793A, “1-(2-Propynyl)-1 H-indazole compounds” (priority 1973, dated 1976).
# Columns and labels:
# [1] = tested on: IN/WHO strain house flies; experiment: topical application, percent kill after 24 hours, susceptible IN/WHO strain; assay type: in vivo, female); conditions: for percent kill after 24 hours, synergist alone: insecticide 0, synergist 1 μg/fly
# Method in brief: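 Insecticide plus synergist in acetone, 1.0 μl applied to the thorax of CO2-anesthetized 3-to-5-day-old female IN/WHO house flies, doses in μg/fly. Flies held 10 per dish, 3-5 dishes per treatment, with skim milk. Percent mortality scored after 24 h.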
# [2] = tested on: Swiss albino, white male mice; experiment: acute toxicity and synergism of acute toxicity in mice; assay type: in vivo; conditions: for number of mice dead, with Dimetilan: 48 hours; for number of mice dead, with Dimetilan / number of mice dead, synergist alone: eight mice; for number of mice dead, with GS 13005: GS 13005 71 + synergist 213 mg/kg; for number of mice dead, with Methadone: Methadone 32 + synergist 215 mg/kg; for number of mice dead, with Secobarbital: Secobarbital 90 + synergist 215 mg/kg; for number of mice dead, synergist alone: synergist 1000 mg/kg i.p., Dimetilan 0, 72 hours
# Method in brief: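 Male Swiss albino mice (23 to 27 g, five to six weeks), eight per dose, dosed intraperitoneally in corn oil: dimetilan alone at 4 to 32 mg per kg, synergists alone at 1000 mg/kg with deaths counted at 72 hours. For synergism, synergist given 1 hour before insecticide, lethality observed for at least 6 hours.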
# male mice = experiment: extension of sleeping time of depressant drugs by synergists; assay type: in vivo, male mice (Swiss albino white); conditions: for Mean Sleeping Time, Noludar / Relative Sleeping Time, Noludar: Noludar 110 mg/kg; for Relative Sleeping Time, Noludar / Relative Sleeping Time, Secobarbital: treated/control; for Mean Sleeping Time, Secobarbital / Relative Sleeping Time, Secobarbital: Secobarbital 37 mg/kg
# Method in brief: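 Swiss albino male mice (~38 days, 25-30 g) given synergist at 74.0 or 110.0 mg/kg in corn oil 1 h before Secobarbital 37.0 mg/kg or Noludar 110.0 mg/kg in water. Sleeping time measured from drug dosing to righting-reflex recovery; relative sleeping time = treated ÷ drug-only control.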
# [3] = Diazinon 0.03 + synergist 0.15 μg/fly
# [4] = GS 13005 0.10 + synergist 0.50 μg/fly
# [5] = Mobam 0.05 + synergist 0.25 μg/fly
# [6] = Mobam 0.10 + synergist 0.50 μg/fly
# [7] = Mobam 0.20 + synergist 1 μg/fly
# [8] = Dimetilan 8 + synergist 80 mg/kg i.p.
# [9] = Dimetilan 8 + synergist 240 mg/kg i.p.
# [10] = synergist 110 mg/kg one hour prior
# [11] = synergist 74 mg/kg one hour prior
# [12] = Mobam 0.13 μg/fly, synergist/insecticide 0.5/1
# [13] = Mobam 0.13 μg/fly, synergist/insecticide 1/1
# [14] = Mobam 0.13 μg/fly, synergist/insecticide 5/1
# [15] = Mobam 0.25 μg/fly, synergist/insecticide 0.5/1
# [16] = Mobam 0.25 μg/fly, synergist/insecticide 1/1
# [17] = Mobam 0.25 μg/fly, synergist/insecticide 2/1
# [18] = Mobam 0.25 μg/fly, synergist/insecticide 5/1
# [19] = Mobam 0.50 μg/fly, synergist/insecticide 0.5/1
# [20] = Mobam 0.50 μg/fly, synergist/insecticide 1/1
# [21] = Mobam 0.50 μg/fly, synergist/insecticide 2/1
# [22] = Mobam 0.50 μg/fly, synergist/insecticide 5/1
# [23] = Mobam 1.0 μg/fly, synergist/insecticide 0.5/1
# [24] = Mobam 1.0 μg/fly, synergist/insecticide 1/1
# [25] = Mobam 1.0 μg/fly, synergist/insecticide 2/1
# [26] = Mobam 1.0 μg/fly, synergist/insecticide 5/1
# [27] = Mobam 0.13 μg/fly, synergist/insecticide 2/1
SMILES,"percent kill after 24 hours, with Diazinon [1, 3]","percent kill after 24 hours, with GS 13005 [1, 4]","percent kill after 24 hours, with Mobam [1, 5]","percent kill after 24 hours, with Mobam [1, 6]","percent kill after 24 hours, with Mobam [1, 7]","percent kill after 24 hours, synergist alone [1]","number of mice dead, with Dimetilan [2, 8]","number of mice dead, with Dimetilan [2, 9]","Mean Sleeping Time, Noludar (male mice; [10])","Relative Sleeping Time, Noludar (male mice; synergist 110 mg/kg)","Mean Sleeping Time, Secobarbital (male mice; [11])","Relative Sleeping Time, Secobarbital (male mice; synergist 74 mg/kg)","Mean Sleeping Time, Secobarbital (male mice; [10])","Relative Sleeping Time, Secobarbital (male mice; synergist 110 mg/kg)","percent mortality 24 hours, with Mobam [1, 12]","percent mortality 24 hours, with Mobam [1, 13]","percent mortality 24 hours, with Mobam [1, 14]","percent mortality 24 hours, with Mobam [1, 15]","percent mortality 24 hours, with Mobam [1, 16]","percent mortality 24 hours, with Mobam [1, 17]",other results
C#CCON=Cc1cccc([N+](=O)[O-])c1 [I-B],22%,73%,0%,0%,73%,0%,1,6,70 min,2.4,54 min,1.5,106 min,1.7,,,,,,,"percent kill after 24 hours, with GS 13005 ([1]; GS 13005 0.05 + synergist 0.25 μg/fly): 2%; percent kill after 24 hours, with GS 13005 ([1]; GS 13005 0.10 + synergist 0.125 μg/fly): 13%; percent kill after 24 hours, with GS 13005 ([1]; GS 13005 0.10 + synergist 0.25 μg/fly): 27%; percent kill after 24 hours, with Mobam ([1]; Mobam 0.20 + synergist 0.25 μg/fly): 13%; percent kill after 24 hours, with Mobam ([1]; Mobam 0.20 + synergist 0.50 μg/fly): 30%"
C#CCON=C(C)c1ccc(Cl)cc1 [I-D],50%,,8%,20%,92%,0%,1,6,58 min,1.5,62 min,1.9,56 min,1.7,,,,,,,
C#CCON=C(C)c1ccc2ccccc2c1 [I-F],24%,45%,,,47%,0%,0,4,55 min,1.4,32 min,1.1,70 min,2.2,,,,,,,
C#CCON=Cc1ccc(Cl)cc1Cl [I-G],,,,,,0%,,0,48 min,1.2,27 min,1.0,55 min,1.7,,,,,,,"percent kill after 24 hours, with Diazinon ([1]; Diazinon 0.02 + synergist 0.10 μg/fly): 40%"
C#CCON=Cc1cccc2ccccc12 [I-I],,,,,,,0,3,62 min,2.1,31 min,1.1,102 min,1.7,,,,,,,
C#CCOCc1ccc(Cl)c(Cl)c1 [II-C],23%,,4%,27%,99%,0%,,0,50 min,1.3,,,33 min,1.0,,,,,,,
C#CCOCc1ccc(Cl)c(Cl)c1Cl [II-D],40%,,10%,50%,100%,0%,,0,46 min,1.0,,,60 min,1.2,7%,17%,50%,30%,63%,83%,"percent mortality 24 hours, with Mobam [1, 18]: 97%; percent mortality 24 hours, with Mobam [1, 19]: 57%; percent mortality 24 hours, with Mobam [1, 20]: 100%; percent mortality 24 hours, with Mobam [1, 21]: 97%; percent mortality 24 hours, with Mobam [1, 22]: 100%; percent mortality 24 hours, with Mobam [1, 23]: 97%; percent mortality 24 hours, with Mobam [1, 24]: 100%; percent mortality 24 hours, with Mobam [1, 25]: 100%; percent mortality 24 hours, with Mobam [1, 26]: 100%; number of mice dead, with GS 13005 [2]: 3; number of mice dead, with Methadone [2]: 2; number of mice dead, with Secobarbital [2]: 1; number of mice dead, synergist alone [2]: 0"
C#CCOCc1c(Cl)ccc(Cl)c1Cl [II-E],45%,,5%,33%,100%,0%,,0,45 min,1.1,,,44 min,1.4,30%,27%,40%,53%,77%,73%,"percent mortality 24 hours, with Mobam [1, 27]: 17%; percent mortality 24 hours, with Mobam [1, 18]: 67%; percent mortality 24 hours, with Mobam [1, 19]: 97%; percent mortality 24 hours, with Mobam [1, 20]: 97%; percent mortality 24 hours, with Mobam [1, 21]: 93%; percent mortality 24 hours, with Mobam [1, 22]: 100%; percent mortality 24 hours, with Mobam [1, 23]: 100%; percent mortality 24 hours, with Mobam [1, 24]: 100%; percent mortality 24 hours, with Mobam [1, 25]: 100%; percent mortality 24 hours, with Mobam [1, 26]: 100%"
C#CCOCc1cc(Cl)c(Cl)cc1Cl [II-F],,,,,,,,0,38 min,1.3,,,46 min,1.0,3%,10%,23%,33%,57%,27%,"percent mortality 24 hours, with Mobam [1, 27]: 0%; percent mortality 24 hours, with Mobam [1, 18]: 73%; percent mortality 24 hours, with Mobam [1, 19]: 70%; percent mortality 24 hours, with Mobam [1, 20]: 83%; percent mortality 24 hours, with Mobam [1, 21]: 80%; percent mortality 24 hours, with Mobam [1, 22]: 97%; percent mortality 24 hours, with Mobam [1, 23]: 100%; percent mortality 24 hours, with Mobam [1, 24]: 93%; percent mortality 24 hours, with Mobam [1, 25]: 93%; percent mortality 24 hours, with Mobam [1, 26]: 100%"
C#CCOCc1c(Cl)cccc1Cl [II-H],,100%,,,100%,10%,0,6,68 min,2.2,44 min,1.4,51 min,2.1,,,,,,,"percent kill after 24 hours, synergist alone (GS 13005 part of Table XXXI) ([1]; GS 13005 0, synergist 1 μg/fly): 10%; number of mice dead, with GS 13005 [2]: 7; number of mice dead, with Methadone [2]: 4; number of mice dead, with Secobarbital [2]: 0; number of mice dead, synergist alone [2]: 0"
